Tests used:
Assay type in all cases: biochemical
[1] = target: T1, recombinant human baculovirus-expressed VEGFR1 cytoplasmic domain (Homo sapiens, UniProt P17948); assay: VEGFR1 kinase inhibition assay (ELISA-based, time-resolved fluorescence); conditions: 1 uM compound, 30 μM ATP; for inhibition at 1 µM: read-out: VEGFR-1 kinase % inhibition @ 1 uM
T1 construct: recombinant human baculovirus-expressed VEGFR1 cytoplasmic domain; host or cells: baculovirus expression system
T1 sequence (P17948 781-1338 limits assumed): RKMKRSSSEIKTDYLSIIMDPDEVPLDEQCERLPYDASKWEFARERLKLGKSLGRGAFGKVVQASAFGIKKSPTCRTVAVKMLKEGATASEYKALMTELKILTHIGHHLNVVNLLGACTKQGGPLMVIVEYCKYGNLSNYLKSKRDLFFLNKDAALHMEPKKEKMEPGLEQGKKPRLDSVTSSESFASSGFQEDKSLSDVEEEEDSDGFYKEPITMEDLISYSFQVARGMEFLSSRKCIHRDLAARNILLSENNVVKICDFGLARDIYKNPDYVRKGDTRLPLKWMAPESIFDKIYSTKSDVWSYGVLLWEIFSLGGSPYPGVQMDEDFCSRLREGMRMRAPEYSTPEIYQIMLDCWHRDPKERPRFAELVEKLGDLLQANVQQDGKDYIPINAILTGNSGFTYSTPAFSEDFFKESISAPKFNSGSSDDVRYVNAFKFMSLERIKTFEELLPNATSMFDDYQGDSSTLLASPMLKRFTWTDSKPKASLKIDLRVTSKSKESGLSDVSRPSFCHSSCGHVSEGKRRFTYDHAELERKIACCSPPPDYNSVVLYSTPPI
Procedure: Inhibition of Vascular Endothelial Growth Factor Receptor-1 Kinase Activity
The VEGFR1 kinase activity assay utilizes an ELISA-based format in a 96-well FluoroNUNC Maxisorp plate with a time-resolved fluorescence readout. The plate was coated with 100 μl/well of substrate solution (recombinant human PLC-γ/GST) at a concentration of 40 μg/ml in Tris buffered saline (TBS). The VEGFR1 activity was assayed in 100-μl assay micture containing 50 mM HEPES (pH 7.4), 30 μM ATP, 10 mM MnCl2, 0.1% BSA, 2% DMSO, and 300 ng/ml prephosphorylated recombinant human baculovirus-expressed VEGFR1 cytoplasmic domain. Compounds were screened for inhibition of the VEGFR1 kinase activity at a concentration of 1 μM. The kinase reaction was allowed to proceed at 37° C. for 15 minutes. The detection antibody, europium-labeled anti-phosphotyrosine antibody (Wallac #CR04-100), was added at 1:5000 dilution in block buffer (3% BSA in TBST). After a 1-hour incubation at 37° C., 100 μl of enhancement solution (Wallac #1244-105) was added and the plate was gently agitated. After 5 min, the fluorescence of the resulting solution was measured using the BMG Fluostar (Model # 403).

[2] = target: T2, recombinant human baculovirus-expressed FGFR1 cytoplasmic domain (Homo sapiens, UniProt P11362); assay: FGFR1 kinase inhibition assay (ELISA-based, time-resolved fluorescence); conditions: 1 uM compound; 20 μM ATP
T2 construct: recombinant human baculovirus-expressed FGFR1 cytoplasmic domain; host or cells: baculovirus expression system
T2 sequence (P11362 398-822 limits assumed): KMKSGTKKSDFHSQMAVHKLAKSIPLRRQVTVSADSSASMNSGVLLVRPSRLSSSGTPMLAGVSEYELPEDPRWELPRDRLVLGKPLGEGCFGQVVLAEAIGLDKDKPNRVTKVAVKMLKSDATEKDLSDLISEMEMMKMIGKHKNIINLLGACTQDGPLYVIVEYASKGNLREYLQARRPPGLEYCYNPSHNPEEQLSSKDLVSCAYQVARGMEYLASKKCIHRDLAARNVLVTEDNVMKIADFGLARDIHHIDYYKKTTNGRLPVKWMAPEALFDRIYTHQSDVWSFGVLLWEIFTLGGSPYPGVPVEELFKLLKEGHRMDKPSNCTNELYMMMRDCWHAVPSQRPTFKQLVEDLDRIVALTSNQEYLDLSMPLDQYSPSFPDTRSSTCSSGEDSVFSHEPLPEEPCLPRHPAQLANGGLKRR
Procedure: Inhibition of Fibroblast Growth Factor Receptor-1 (FGFR1) Kinase Activity
The FGFR1 kinase activity was measured using an ELISA-based format in a 96-well FluoroNUNC Maxisorp plate with a time-resolved fluorescence readout as described for trkA kinase. The plate was coated with 100 μl/well of substrate solution (recombinant human PLC-γ/GST) at a concentration of 10 μg/ml in Tris buffered saline (TBS). The FDGFR1 activity was assayed in 100-μl assay micture containing 50 mM HEPES (pH 7.4), 20 μM ATP, 10 mM MnCl2, 0.1% BSA, 2% DMSO, and 15 ng/ml recombinant human baculovirus-expressed FGFR1 cytoplasmic domain (prephosphorylated prior to use). Compounds were screened for inhibition of the FGFR1 kinase activity at a conentration of 1 μM. The kinase reaction was allowed to proceed at 37° C. for 15 minutes. The detection antibody, europium-labeled anti-phosphotyrosine antibody (Wallace #CR04-100), was added at 1:5000 dilution in block buffer (3% BSA in TBST). After a 1-hour incubation at 37° C., 100 μl of enhancement solution (Wallac #1244-105) and the plate was gently agitated. After 5 min, the fluorescence of the resulting solutions measured using the BMG Fluostar (Model # 403).

[3] = target: T3, baculoviral GST-MLK1KD (Homo sapiens, UniProt P80192); assay: Mixed Lineage Kinase-1 inhibition assay (Millipore Multiscreen TCA in-plate, 32P); conditions: for inhibition at 1 µM: read-out: MLK-1 Kinase % inhibition @ 1 uM; for MLK-1 Kinase % inhibition @ 1 uM: 1 uM compound, 60 μM ATP
T3 construct: 1 μg/ml of baculoviral GST-MLK1KD; GST (N); host or cells: baculovirus expression system
T3 sequence (P80192 144-412 limits assumed): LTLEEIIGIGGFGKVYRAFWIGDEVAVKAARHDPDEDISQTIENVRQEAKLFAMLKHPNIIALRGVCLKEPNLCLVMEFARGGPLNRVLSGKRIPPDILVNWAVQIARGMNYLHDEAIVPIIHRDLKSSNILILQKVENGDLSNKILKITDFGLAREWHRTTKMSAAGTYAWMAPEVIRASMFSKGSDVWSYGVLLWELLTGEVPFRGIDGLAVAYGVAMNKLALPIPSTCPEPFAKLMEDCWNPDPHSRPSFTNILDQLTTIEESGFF
Procedure: Inhibition of Mixed Lineage Kinase-1 Activity
The kinase activity of MLK1 was assessed using the Millipore Multiscreen TCA “in-plate” format as described for protein kinase C (Pitt & Lee, J. Biomol. Screening, 1: 47-51, 1996). Briefly, each 50-μl assay mixture contained 20 mM Hepes, pH 7.0, 1 mM EGTA, 10 mM MgCl2, 1 mM DTT, 25 mM β-glycerophosphate, 60 μM ATP, 0.25 μCi [γ-^32P]ATP, 0.1% BSA, 500 μg/ml myelin basic protein (UBI #13-104), 2% DMSO, 1 μM of test compound, and 1 μg/ml of baculoviral GST-MLK1KD. Samples were incubated for 15 min at 37° C. The reaction was stopped by adding ice cold 50% TCA and the protein were allowed to precipitate for 30 min at 4° C. The plates were then washed with ice cold 25% TCA. Supermix scintillation cocktail was added, and the plates were allowed to equilibrate for 1-2 hours prior to counting using the Wallac MicroBeta 1450 PLUS scintillation counter.

[4] = target: T4, baculovirus-expressed human trkA cytoplasmic domain (Homo sapiens, UniProt P04629); assay: trkA tyrosine kinase inhibition assay (ELISA-based); conditions: 1 uM compound; 40 μM ATP
T4 construct: baculovirus-expressed human trkA cytoplasmic domain; host or cells: baculovirus expression system
T4 sequence (P04629 440-796 limits assumed): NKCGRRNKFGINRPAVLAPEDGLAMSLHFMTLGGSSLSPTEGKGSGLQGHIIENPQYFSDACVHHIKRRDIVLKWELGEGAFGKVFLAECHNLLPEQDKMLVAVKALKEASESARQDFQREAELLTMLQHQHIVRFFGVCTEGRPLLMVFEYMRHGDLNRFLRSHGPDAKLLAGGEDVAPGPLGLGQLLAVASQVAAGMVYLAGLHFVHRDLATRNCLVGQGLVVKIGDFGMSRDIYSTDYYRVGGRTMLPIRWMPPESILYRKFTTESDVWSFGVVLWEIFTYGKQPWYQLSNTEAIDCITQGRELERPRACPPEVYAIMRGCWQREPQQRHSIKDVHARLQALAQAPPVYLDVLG
Procedure: Inhibition of trkA Tyrosine Kinase Activity
Selected heterocyclic substituted pyrazolones were tested for their ability to inhibit the kinase activity of baculovirus-expressed human trkA cytoplasmic domain using an ELISA-based assay as previously described (Angeles et al., Anal. Biochem. 236: 49-55, 1996). Briefly, a 96-well microtiter plate was coated with substrate solution (recombinant human phospholipase C-γl/glutathione S-transferase fusion protein (Rotin et al., EMBO J., 11: 559-567, 1992). Inhibition studies were performed in 100 μl assay mixtures containing 50 mM Hepes, pH 7.4, 40 μM ATP, 10 mM MnCl2, 0.1% BSA, 2% DMSO, and various concentrations of inhibitor. The reaction was initiated by addition of trkA kinase and allowed to proceed for 15 minutes at 37° C. An antibody to phosphotyrosine (UBI) was then added, followed by a secondary enzyme-conjugated antibody, alkaline phosphatase-labelled goat anti-mouse IgG (Bio-Rad). The activity of the bound enzyme was measured via an amplified detection system (Gibco-BRL). Inhibition data were analyzed using the sigmoidal dose-response (variable slope) equation in GraphPad Prism.

SMILES | inhibition at 1 µM [1] | inhibition at 1 µM [2] | inhibition at 1 µM [3] | inhibition at 1 µM [4] | VEGFR-1 kinase % inhibition @ 1 uM [1] | FGFR1 % inhibition @ 1 uM [2] | MLK-1 Kinase % inhibition @ 1 uM [3] | trkA % inhibition @ 1 uM [4]
O=C1NN=C(c2nccs2)C1=Cc1c[nH]c2ccccc12 [Compound 25, 4-(indol-3-ylmethylene)-3-(1,3-thiazol-2-yl)-2-pyrazolin-5-one] | 66% | 52% | 11% | 65% | – | – | – | –
Cc1cc(C)c(C=C2C(=O)NN=C2c2nccs2)[nH]1 [Compound 26, 4-[(3,5-dimethylpyrrol-2-yl)methylene]-3-(1,3-thiazol-2-yl)-2 pyrazolin-5-one] | 64% | 46% | 10% | 42% | – | – | – | –
Cc1cc(C)c(C=C2C(=O)NN=C2c2c(C)coc2C)[nH]1 [Compound 27] | – | – | – | – | 11% | 36% | 6% | 49%
Cc1cc(C)c(C=C2C(=O)NN=C2c2ccco2)[nH]1 [Compound 28, 4-[(3,5-dimethylpyrrol-2-yl)methylene]-3-(2-furyl)-2-pyrazolin-5-one] | 36% | 37% | 2% | 34% | – | – | – | –
O=C1NN=C(c2ccco2)C1=Cc1c[nH]c2ccccc12 [Compound 29, 3-(2-furyl)-4-(indol-3-ylmethylene)-2-pyrazolin-5-one] | 53% | 41% | 21% | 43% | – | – | – | –
Cc1cc(C)c(C=C2C(=O)NN=C2c2ccccn2)[nH]1 [Compound 30] | – | – | – | – | 41% | 27% | 2% | 22%
Cn1ccc(C2=NNC(=O)C2=Cc2c[nH]c3cccc(OCc4ccccc4)c23)c1 [Compound 31] | – | – | – | – | 10% | 17% | 27% | 39%
Cn1ccc(C2=NNC(=O)C2=Cc2c[nH]c3ccc(F)cc23)c1 [Compound 32] | – | – | – | – | 48% | 4% | 5% | 8%
Cc1ccc2c(C=C3C(=O)NN=C3c3ccn(C)c3)c[nH]c2c1 [Compound 33] | – | – | – | – | 36% | 27% | 8% | 32%
Cc1cccc2c(C=C3C(=O)NN=C3c3ccn(C)c3)c[nH]c12 [Compound 34] | – | – | – | – | 30% | 34% | 17% | 25%
Cn1ccc(C2=NNC(=O)C2=Cc2c[nH]c3ccc(Cl)cc23)c1 [Compound 35] | – | – | – | – | 10% | 29% | 7% | 23%
Cc1cc(C)c(C=C2C(=O)NN=C2c2cc(C)oc2C)[nH]1 [Compound 36] | – | – | – | – | 14% | 31% | −9% | 40%
Cc1cc(C)c(C=C2C(=O)NN=C2c2ccsc2)[nH]1 [Compound 37, 4-[(3,5-dimethylpyrrol-2-yl)methylene]-3-(3-thienyl)-2-pyrazolin-5-one] | 14% | 32% | 15% | 28% | – | – | – | –
O=C1NN=C(c2cccs2)C1=Cc1c[nH]c2ccccc12 [Compound 38, 4-(indol-3-ylmethylene)-3-(2-thienyl)-2-pyrazolin-5-one] | 28% | 28% | 16% | 40% | – | – | – | –
Cc1cc(C)c(C=C2C(=O)NN=C2c2csc3ccccc23)[nH]1 [Compound 39] | – | – | – | – | 4% | 13% | 4% | 31%
Cc1cc(C)c(C=C2C(=O)NN=C2c2csc(-c3ccccc3)n2)[nH]1 [Compound 40] | – | – | – | – | 16% | 22% | 33% | 27%
Cc1cc(C)c(C=C2C(=O)NN=C2c2cc(-c3ccc(Cl)cc3)oc2C)[nH]1 [Compound 41] | – | – | – | – | 5% | 21% | 13% | 17%
Cc1oc(-c2ccc(Cl)cc2)cc1C1=NNC(=O)C1=Cc1c[nH]c2ccccc12 [Compound 42] | – | – | – | – | 13% | 32% | −9% | 29%
O=C1NN=C(c2ccco2)C1=Cc1c[nH]c2ccc(OCc3ccccc3)cc12 [Compound 43] | – | – | – | – | −2% | 26% | 13% | 42%
O=C1NN=C(c2ccco2)C1=Cc1c[nH]c2cccc(OCc3ccccc3)c12 [Compound 44] | – | – | – | – | 2% | 10% | 25% | 23%
Cn1cc(C=C2C(=O)NN=C2c2ccco2)c2ccccc21 [Compound 45] | – | – | – | – | 46% | 8% | 24% | 39%

Source: patent US6831075B2, “Heterocyclic substituted pyrazolones” (Cephalon, Inc., priority 1999, dated 2004)
